This is an account of results in US20230265151A1, “GIP/GLP1 CO-AGONIST COMPOUNDS” (priority 2020, published 2023).

One may read the Ki as the equilibrium dissociation constant of an inhibitor or competing ligand from its target. In general, EC50 refers to the concentration needed to bring the measured effect to its halfway point. Broadly, the Emax is the maximal effect, on the per cent scale that the assay sets.

Test [1] concerns the target T1, human GIP receptor (hGIPR) (Homo sapiens, UniProt P48546).
T1 construct: expressed in transfected cells; crude membranes
T1 sequence (P48546 22-466): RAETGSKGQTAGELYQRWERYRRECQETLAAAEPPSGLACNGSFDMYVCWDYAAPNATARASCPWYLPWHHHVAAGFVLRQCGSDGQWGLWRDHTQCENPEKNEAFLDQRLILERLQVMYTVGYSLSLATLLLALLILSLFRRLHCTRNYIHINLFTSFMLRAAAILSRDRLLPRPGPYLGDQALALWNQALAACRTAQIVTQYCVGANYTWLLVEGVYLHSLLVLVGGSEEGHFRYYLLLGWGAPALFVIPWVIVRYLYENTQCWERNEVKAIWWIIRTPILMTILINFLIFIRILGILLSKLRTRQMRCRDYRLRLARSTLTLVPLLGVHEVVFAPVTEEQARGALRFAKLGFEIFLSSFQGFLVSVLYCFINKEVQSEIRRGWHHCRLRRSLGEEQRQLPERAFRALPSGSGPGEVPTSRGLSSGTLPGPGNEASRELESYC
Kind of test: [125I]-GIP binding, SPA with membranes of CHO cells expressing hGIPR. The settings on record: human GIPR; geometric mean (SEM, n); read-out: Binding Affinity Ki, nM (SEM, n) hGIPR.

Test [2] has as its target T2, hGIPR (Homo sapiens, UniProt P48546).
T2 construct: expressed in transfected cells
T2 sequence (P48546 22-466): T1 sequence (P48546 22-466)
As to the kind of experiment: Functional cAMP formation (HTRF) in HEK-293 clonal cells expressing hGIPR, 0.1% bovine casein, without or with 1.0% human serum albumin. The format is cell-based. To be noted: 37° C.; for EC50: geometric mean, read-out: hGIPR EC50, nM (SEM, n); for Emax: read-out: hGIPR Emax, % ± SEM. In short, it runs like this:
(§1)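 Cells were stimulated with peptide for 30 min at 37° C, then intracellular cAMP was measured by competitive HTRF (665/620 nm ratio) and converted to nM using a cAMP standard curve. Relative EC50 and Emax came from four-parameter logistic fits of percent maximal response against peptide concentration.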

For test [3], the target named is T3, hGCGR (Homo sapiens, UniProt P47871).
T3 construct: expressed in transfected cells
T3 sequence (P47871 26-477): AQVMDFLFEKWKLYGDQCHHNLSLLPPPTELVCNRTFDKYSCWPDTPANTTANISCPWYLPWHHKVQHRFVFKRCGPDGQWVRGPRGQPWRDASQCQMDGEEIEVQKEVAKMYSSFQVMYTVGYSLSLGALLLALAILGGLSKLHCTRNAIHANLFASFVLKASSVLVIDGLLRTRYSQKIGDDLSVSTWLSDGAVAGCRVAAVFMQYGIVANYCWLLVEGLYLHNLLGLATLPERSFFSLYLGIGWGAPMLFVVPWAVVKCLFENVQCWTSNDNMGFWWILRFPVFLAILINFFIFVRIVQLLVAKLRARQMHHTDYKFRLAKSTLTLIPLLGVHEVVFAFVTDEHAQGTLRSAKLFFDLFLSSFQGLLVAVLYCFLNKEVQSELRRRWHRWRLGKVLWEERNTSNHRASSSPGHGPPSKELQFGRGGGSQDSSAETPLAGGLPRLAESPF
Kind of test: Functional cAMP formation (HTRF) in HEK-293 clonal cells expressing hGCGR, 0.1% bovine casein, without or with 1.0% human serum albumin. The format is cell-based. The settings on record: read-out: hGCGR EC50, nM (SEM, n). An outline of the steps: as §1
In general terms: cAMP levels reflect the balance of adenylyl cyclase and phosphodiesterase activity.

The target of test [4] is hGLP-1R (Homo sapiens, UniProt P43220). As to the kind of experiment: Functional cAMP formation (HTRF) in HEK-293 clonal cells expressing hGLP-1R, 0.1% bovine casein, without or with 1.0% human serum albumin. The format is cell-based. More on the design: expressed in transfected cells. The settings on record: for Emax: read-out: hGLP-1R Emax, % ± SEM; for EC50: cAMP, 0.1% bovine casein (no human serum albumin), geometric mean, read-out: hGLP-1R EC50, nM (SEM, n). In short, it runs like this: as §1
hGLP-1R, sequence (P43220 24-463): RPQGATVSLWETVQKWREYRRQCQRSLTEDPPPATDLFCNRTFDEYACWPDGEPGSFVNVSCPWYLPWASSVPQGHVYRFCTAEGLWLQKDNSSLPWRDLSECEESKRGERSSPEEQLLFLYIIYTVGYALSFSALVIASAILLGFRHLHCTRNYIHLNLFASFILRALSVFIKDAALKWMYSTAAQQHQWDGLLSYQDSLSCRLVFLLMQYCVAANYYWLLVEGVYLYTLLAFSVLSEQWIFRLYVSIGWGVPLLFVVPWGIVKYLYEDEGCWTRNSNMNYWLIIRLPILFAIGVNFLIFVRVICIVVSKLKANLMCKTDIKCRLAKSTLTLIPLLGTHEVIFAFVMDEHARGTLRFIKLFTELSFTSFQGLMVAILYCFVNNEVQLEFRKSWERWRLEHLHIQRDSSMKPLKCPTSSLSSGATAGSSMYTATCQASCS

Where two headings read alike, the source gives them in different places.

As to `CCCC[C@H](NC(=O)[C@H](CC(=O)O)NC(=O)[C@H](CO)NC(=O)[C@@H](NC(=O)[C@](C)(Cc1ccccc1F)NC(=O)[C@@H](NC(=O)CNC(=O)[C@H](CCC(=O)O)NC(=O)C(C)(C)NC(=O)[C@@H](N)Cc1ccc(O)cc1)[C@@H](C)O)[C@@H](C)O)C(=O)N[C@@H](CO)C(=O)N[C@H](C(=O)N[C@@](C)(CC(C)C)C(=O)N[C@@H](CC(C)C)C(=O)N[C@@H](CC(=O)O)C(=O)N[C@@H](CCCN)C(=O)N[C@@H](CCCCNC(=O)COCCOCCNC(=O)COCCOCCNC(=O)CC[C@H](NC(=O)CCCCCCCCCCCCC(=O)O)C(=O)O)C(=O)N[C@@H](C)C(=O)N[C@@H](CCC(N)=O)C(=O)NC(C)(C)C(=O)N[C@@H](CCC(=O)O)C(=O)N[C@@H](Cc1ccccc1)C(=O)N[C@H](C(=O)N[C@H](CCC(=O)O)C(=O)N[C@@](C)(Cc1ccc(O)cc1)C(=O)N[C@@H](CC(C)C)C(=O)N[C@H](C(=O)N[C@@H](CCC(=O)O)C(=O)NCC(=O)NCC(=O)N[C@@H](CCCCNC(=O)COCCOCCNC(=O)COCCOCCNC(=O)CC[C@H](NC(=O)CCCCCCCCCCCCC(=O)O)C(=O)O)C(=O)N[C@@H](CO)C(=O)N[C@@H](CO)C(=O)NCC(=O)N[C@@H](C)C(=O)N1CCC[C@H]1C(=O)N1CCC[C@H]1C(=O)N1CCC[C@H]1C(=O)N[C@@H](CO)C(N)=O)[C@@H](C)CC)[C@@H](C)CC)[C@@H](C)CC` [Example 60], in test [1], the inhibitory constant (Ki) turned out to be 0.11 nM. In addition, the concentration giving a half-maximal response (EC50) in test [2] (0.1% bovine casein and 1.0% human serum albumin) is 1.2 nM; in test [3] (0.1% bovine casein and 1.0% human serum albumin, 37° C., geometric mean), over 9950 nM; in test [3] (cAMP, incubated at 37° C., 0.1% bovine casein (no human serum albumin), geometric mean), over 9950 nM; in test [4] (incubated at 37° C.), 0.19 nM. Further, the Emax in test [2] (HEK293, 0.1% bovine casein and 1.0% human serum albumin, percent of maximal response to GIP(1-42)NH2) was 89.4 ± 4.57%; in test [2] (HEK293, percent of maximal response to GIP(1-42)NH2, 0.1% bovine casein, arithmetic mean), 94 ± 6.07%; in test [4] (HEK293, 0.1% bovine casein and 1.0% human serum albumin, 37° C., percent of maximal response to GLP-1(7-36)NH2), 111 ± 3.97%; in test [4] (HEK293, percent of maximal response to GLP-1(7-36)NH2, 37° C., 0.1% bovine casein, arithmetic mean) it was 97.2 ± 4.28%.
Turning to `CC[C@H](C)[C@H](NC(=O)[C@H](CC(C)C)NC(=O)[C@](C)(Cc1ccc(O)cc1)NC(=O)[C@@H](CCC(=O)O)NC(=O)[C@@H](NC(=O)[C@H](Cc1ccccc1)NC(=O)[C@H](CCC(=O)O)NC(=O)C(C)(C)NC(=O)[C@H](CCC(N)=O)NC(=O)[C@H](C)NC(=O)[C@H](CCCCNC(=O)COCCOCCNC(=O)CCCCCCCNC(=O)CCCCCCCCCCCCC(=O)O)NC(=O)[C@H](CCCN)NC(=O)[C@H](CC(=O)O)NC(=O)[C@H](CC(C)C)NC(=O)[C@](C)(CC(C)C)NC(=O)[C@@H](NC(=O)C(C)(C)NC(=O)[C@H](Cc1ccncc1)NC(=O)[C@H](CC(=O)O)NC(=O)[C@H](CO)NC(=O)[C@@H](NC(=O)[C@](C)(Cc1ccccc1F)NC(=O)[C@@H](NC(=O)CNC(=O)[C@H](CCC(=O)O)NC(=O)C(C)(C)NC(=O)[C@@H](N)Cc1ccc(O)cc1)[C@@H](C)O)[C@@H](C)O)[C@@H](C)CC)[C@@H](C)CC)C(=O)N[C@@H](CCCCNC(=O)COCCOCCNC(=O)CCCCCCCNC(=O)CCCCCCCCCCCCC(=O)O)C(=O)NCC(=O)NCC(=O)N1CCC[C@H]1C(=O)N[C@@H](CO)C(=O)N[C@@H](CO)C(=O)NCC(=O)N[C@@H](C)C(=O)N1CCC[C@H]1C(=O)N1CCC[C@H]1C(=O)N1CCC[C@H]1C(=O)N[C@@H](CO)C(N)=O` [Example 465], the Ki in test [1] turned out to be 0.0464 nM. In addition, the maximal effect (Emax) in test [2] (HEK293, cAMP, 0.1% bovine casein and 1.0% human serum albumin, percent of maximal response to GIP(1-42)NH2) amounted to 94.4%; in test [2] (HEK293, cAMP, 0.1% bovine casein, percent of maximal response to GIP(1-42)NH2, arithmetic mean) it was 94.9%; in test [4] (HEK293, cAMP, 37° C., 0.1% bovine casein and 1.0% human serum albumin, percent of maximal response to GLP-1(7-36)NH2), 93.3%. Moreover, the concentration giving a half-maximal response (EC50) was 0.0174 nM in test [2] (cAMP, 0.1% bovine casein (no human serum albumin)); over 9950 nM in test [3] (cAMP, 37° C., 0.1% bovine casein (no human serum albumin), geometric mean); over 9950 nM in test [3] (cAMP, 37° C., 0.1% bovine casein and 1.0% human serum albumin, geometric mean (SEM, n)); 0.413 nM in test [4] (37° C.).
